Consider one compound from patent publication US20050069541A1, “Composition for and treatment of demyelinating diseases and paralysis by administration of remyelinating agents” (priority 2003, published 2005).

“Also recorded” adds a separate entry of the source.

Holding throughout (type): in vivo, guinea pig
Test [1] concerns α4 integrin on circulating lymphocytes and monocytes. In words: Chronic EAE: FACS analysis of α4 integrin on circulating cells, day 80. How it is done: FACS Analysis. On day 80 post-immunization, heparinized blood samples were collected from non-EAE animals, saline-treated animals, N-[N-(3-pyridinesulfonyl)-L-3,3-dimethyl-4-thiaprolyl]-O-[1-methylpiperazin-4-ylcarbonyl]-L-tyrosine isopropyl ester-treated animals and animals 10 days following withdrawal of N-[N-(3-pyridinesulfonyl)-L-3,3-dimethyl-4-thiaprolyl]-O-[1-methylpiperazin-4-ylcarbonyl]-L-tyrosine isopropyl ester. All samples were maintained at 4° C. for all procedures. 150 μl samples were exposed to primary antibody for 30 minutes, washed twice, and then incubated with PE-conjugated goat anti-mouse IgG Fc in the presence of 5% guinea pig serum (Beckman Coulter #PN EM055 1). Red blood cells were lysed with Becton-Dickinson lysing solution and the samples were examined on a FACScan flow cytometer (Becton Dickinson, Mountain View, Calif.) gating on different cell populations by light scatter.
(In flow cytometry, cells or beads pass a laser one at a time.)

Test [2] relates to brain and spinal cord of EAE guinea pigs. In words: Chronic EAE: histology and blinded pathological scoring of brain and spinal cord sections (H-E, SCR). How it is done: Animal Sacrifice and Histological Analysis. Untreated, chronic EAE animals (n=5) were sacrificed on day 40, as well as non-EAE controls (n=5). Following each 10-day treatment interval, 5 animals from each group were sacrificed (0.25 mL sodium pentobarbital), blood samples were collected for FACS analysis (see below), and the brain and spinal cord dissected and sectioned. Three spinal sections were used, corresponding to lumbar, thoracic and cervical regions of the cord. The brain was cut into five transverse sections. The first three proximal sections were combined in one block, and the last two distal sections in another. Tissues were fixed in 10% formalin and embedded in paraffin. […] sections were stained with hematoxylin-eosin (H-E) or solochrome-R-cyanlin (SCR) and evaluated by a blinded observer in each of four categories: (1) meningeal inflammation, (2) perivascular infiltration, (3) encephalitis or (4) myelitis and demyelination (Table 6). The combined pathological score represents the total score (out of a potential 20) from all 5 CNS sections in each animal.

The test system of test [3] is IL-2, IL-10, MCP-1 RNA. The experiment in a line: Chronic EAE: quantitative RT-PCR of spinal cord. How it is done: Quantitative Reverse Transcription-PCR: IL-2, IL-10, MCP-1. RNA was isolated from 30 mg of frozen guinea pig spinal cord using the S.N.A.P.™ (simple nucleic acid preparation) total RNA Isolation Kit (Invitrogen) according to manufacturer's instructions, modified to include a second DNAse treatment step followed by an additional purification over the S.N.A.P. column.
Primer/probe sequences and concentrations for IL-2, IL-10, and MCP-1 are given in Table 7, as well as the standard RNA used for each gene. RT-PCR was carried out in triplicate using the ABI PRISM® 7700 Sequence Detection System. 50 μl reactions contained 10 to 800 ng of total RNA and primers and probes at the concentrations indicated above in reaction buffer consisting of 6.67% glycerol (Amresco); 5.5 mM MgCl; 300 μM DATP, dCTP, dGTP, and dUTP; 100 nM probe; 1.25 unit of AmpliTaq Gold® DNA Polymerase (Applied Biosystems); 1× TaqMan® Buffer A (TaqMan® PCR Core reagents kit, Applied Biosystems), 20 units of RNase Inhibitor (Roche); 1.25 unit of murine leukemia virus (MuLV) Reverse Transcriptase (Applied Biosystems). Reverse-transcription of RNA was carried out at 48° C. for 30 min., followed by a 10 min. denaturing step at 95° C. PCR was carried out by 40 thermo-cycles consisting of 95° C. for 15 seconds followed by 60° C. for 1 minute. Each plate included a standard curve using the standard RNA listed in Table 7 and two additional control samples: 1) a positive control RNA sample used on all plates, 2) a non-template control (NTC).
The correlation coefficients of the standard curves were greater than 0.990 for all data shown. The coefficients of variation for sample triplicates were less than 0.2. Since the RNA used for the standard curve is a heterogeneous mix of RNA containing a constant but unknown amount of the target message, the numbers calculated are relative.

Take `CC(C)OC(=O)[C@H](Cc1ccc(OC(=O)N2CCN(C)CC2)cc1)NC(=O)[C@H]1N(S(=O)(=O)c2cccnc2)CSC1(C)C` [N-[N-(3-pyridinesulfonyl)-L-3,3-dimethyl-4-thiaprolyl]-O-[1-methylpiperazin-4-ylcarbonyl]-L-tyrosine isopropyl ester]: the “percentage of α4 integrin bright lymphocytes in the circulation after removal of compound” value in test [1] (10 days after withdrawal) is given as “returned to saline-treated levels”. Further, the “increase of α4 integrin expression on circulating monocytes in EAE” value in test [1] (day 80) is on record as “not affected”. Moreover, the “α4 integrin bright lymphocytes in the circulation versus saline” value in test [1] (day 80 post immunization) is “large increase”. In addition, the “mean pathological score in each of four categories versus saline” value in test [2] (meningeal inflammation, perivascular infiltration, encephalitis/myelitis, demyelination, p<0.001 two-way ANOVA) was “significant decrease”. The “mean combined pathological score after withdrawal for 10 days versus continued treatment” value in test [2] (p<0.05 Kruskal Wallis) was “significantly higher”. In test [2] (versus saline), the “spinal cord histology after 20 days of treatment (day 60)” value is given as “much smaller areas of demyelination”; the “spinal cord histology after 40 days of treatment (day 80)” value is “almost no meningeal and perivascular infiltration”. Further, in test [3] (10 days after withdrawal), the “cytokine RNA after withdrawal of compound” value is given as “returned to levels comparable to saline-treated animals”. For the same compound, the “IL-2 RNA in spinal cord during treatment” value in test [3] (lumbar spinal cord) is listed as “almost no detectable IL-2 RNA”. Further, the “inflammatory cytokine RNA (IL-2, IL-10, MCP-1) during treatment” value in test [3] (lumbar spinal cord, versus saline) is “significant reduction; also recorded: marked decrease”.
